Reference: PubChem BioAssay AID1963968 (Molecular Pharmacology Branch, DTP, NCI, 2024)

System: 945468-187-T-J3-PDC spheroids with HUVEC/MSC, viability
Test: Anticancer human tumor 945468-187-T-J3-PDC patient-derived rectal carcinoma cell line growth inhibition [PI3K]
Conditions: for IC50: curve of first compound; for viability, T/C: stronger effect = lower value
Summary of the method: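 Stroma-containing spheroids: tumor line, pooled-donor HUVEC, hMSC. Treatments: targeted agents with PI3K inhibitors. Dosing: clinically relevant, half-log spacing, 10 microM ceiling without known Cmax. Read-out: cell viability.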

[1] = second compound 0.00316 µM, first compound 0.0316 µM
[2] = second compound 0.00316 µM, first compound 0.1 µM
[3] = second compound 0.00316 µM, first compound 0.316 µM
[4] = second compound 0.00316 µM, first compound 1 µM
[5] = second compound 0.00316 µM, first compound 3.16 µM
[6] = second compound 0.00316 µM, first compound 10 µM
[7] = second compound 0.01 µM, first compound 0.0316 µM
[8] = second compound 0.01 µM, first compound 0.1 µM
[9] = second compound 0.01 µM, first compound 0.316 µM
[10] = second compound 0.01 µM, first compound 1 µM
[11] = second compound 0.01 µM, first compound 3.16 µM
[12] = second compound 0.01 µM, first compound 10 µM
[13] = second compound 0.0316 µM, first compound 0.0316 µM
[14] = second compound 0.0316 µM, first compound 0.1 µM
[15] = second compound 0.0316 µM, first compound 0.316 µM
[16] = second compound 0.0316 µM, first compound 1 µM
[17] = second compound 0.0316 µM, first compound 3.16 µM
[18] = second compound 0.0316 µM, first compound 10 µM
[19] = second compound 0.1 µM, first compound 0.0316 µM
[20] = second compound 0.1 µM, first compound 0.1 µM
[21] = second compound 0.1 µM, first compound 0.316 µM
[22] = second compound 0.1 µM, first compound 1 µM
[23] = second compound 0.1 µM, first compound 3.16 µM
[24] = second compound 0.1 µM, first compound 10 µM
[25] = second compound 0.316 µM, first compound 0.0316 µM
[26] = second compound 0.316 µM, first compound 0.1 µM
[27] = second compound 0.316 µM, first compound 0.316 µM
[28] = second compound 0.316 µM, first compound 1 µM
[29] = second compound 0.316 µM, first compound 3.16 µM
[30] = second compound 0.316 µM, first compound 10 µM
[31] = second compound 1 µM, first compound 0.0316 µM
[32] = second compound 1 µM, first compound 0.1 µM
[33] = second compound 1 µM, first compound 0.316 µM
[34] = second compound 1 µM, first compound 1 µM
[35] = second compound 1 µM, first compound 3.16 µM
[36] = second compound 1 µM, first compound 10 µM
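Note: spheroids exposed to agents for 7 days before viability read.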
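Throughout, for viability, T/C: 100% = DMSO vehicle control viability.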

C#Cc1c(F)ccc2cc(O)cc(-c3ncc4c(N5CC6CCC(C5)N6)nc(OCC56CCCN5CC(F)C6)nc4c3F)c12 (stereo not drawn) + CC(Nc1ccc2c(c1)OCCn1cc(N3C(=O)OCC3C(F)F)nc1-2)C(N)=O
IC50 (second compound 0.00316 µM): > 10 µM
IC50 (second compound 0.01 µM): > 10 µM
IC50 (second compound 0.0316 µM): > 10 µM
IC50 (second compound 0.1 µM): > 10 µM
IC50 (second compound 0.316 µM): > 10 µM
IC50 (second compound 1 µM): 2.76 µM
viability, T/C [1]: 94%
viability, T/C [2]: 103%
viability, T/C [3]: 94%
viability, T/C [4]: 114%
viability, T/C [5]: 120%
viability, T/C [6]: 113%
viability, T/C [7]: 94.1%
viability, T/C [8]: 100%
viability, T/C [9]: 94.6%
viability, T/C [10]: 115%
viability, T/C [11]: 138%
viability, T/C [12]: 102%
viability, T/C [13]: 100%
viability, T/C [14]: 104%
viability, T/C [15]: 99.8%
viability, T/C [16]: 118%
viability, T/C [17]: 115%
viability, T/C [18]: 105%
viability, T/C [19]: 122%
viability, T/C [20]: 112%
viability, T/C [21]: 97%
viability, T/C [22]: 117%
viability, T/C [23]: 115%
viability, T/C [24]: 103%
viability, T/C [25]: 111%
viability, T/C [26]: 99.6%
viability, T/C [27]: 91.3%
viability, T/C [28]: 106%
viability, T/C [29]: 91%
viability, T/C [30]: 56.1%
viability, T/C [31]: 76.2%
viability, T/C [32]: 73.2%
viability, T/C [33]: 64.9%
viability, T/C [34]: 70.2%
viability, T/C [35]: 47.3%
viability, T/C [36]: 29%

CC(Cn1ccc(-c2ccc(C#N)c(Cl)c2)n1)NC(=O)c1cc(C(C)O)[nH]n1 (stereo not drawn) + CC(Nc1ccc2c(c1)OCCn1cc(N3C(=O)OCC3C(F)F)nc1-2)C(N)=O
IC50 (second compound 0.00316 µM): > 10 µM
IC50 (second compound 0.01 µM): > 10 µM
IC50 (second compound 0.0316 µM): > 10 µM
IC50 (second compound 0.1 µM): > 10 µM
IC50 (second compound 0.316 µM): > 10 µM
IC50 (second compound 1 µM): > 10 µM
viability, T/C [1]: 95.2%
viability, T/C [2]: 99.4%
viability, T/C [3]: 106%
viability, T/C [4]: 112%
viability, T/C [5]: 114%
viability, T/C [6]: 99.6%
viability, T/C [7]: 111%
viability, T/C [8]: 104%
viability, T/C [9]: 93.6%
viability, T/C [10]: 111%
viability, T/C [11]: 114%
viability, T/C [12]: 106%
viability, T/C [13]: 115%
viability, T/C [14]: 107%
viability, T/C [15]: 101%
viability, T/C [16]: 111%
viability, T/C [17]: 109%
viability, T/C [18]: 107%
viability, T/C [19]: 109%
viability, T/C [20]: 115%
viability, T/C [21]: 115%
viability, T/C [22]: 114%
viability, T/C [23]: 107%
viability, T/C [24]: 99.1%
viability, T/C [25]: 107%
viability, T/C [26]: 107%
viability, T/C [27]: 96.7%
viability, T/C [28]: 115%
viability, T/C [29]: 108%
viability, T/C [30]: 102%
viability, T/C [31]: 80.5%
viability, T/C [32]: 68.6%
viability, T/C [33]: 75.4%
viability, T/C [34]: 71.2%
viability, T/C [35]: 74.8%
viability, T/C [36]: 71.1%

CC1(C)CCC(Nc2ncc(C(F)(F)F)c(-c3c[nH]c4c(P(C)(C)=O)c(C#N)ccc34)n2)CN1 (stereo not drawn) + CC(Nc1ccc2c(c1)OCCn1cc(N3C(=O)OCC3C(F)F)nc1-2)C(N)=O
IC50 (second compound 0.00316 µM): 5.65 µM
IC50 (second compound 0.01 µM): 5.69 µM
IC50 (second compound 0.0316 µM): 5.24 µM
IC50 (second compound 0.1 µM): 5.3 µM
IC50 (second compound 0.316 µM): 3.77 µM
IC50 (second compound 1 µM): 1.99 µM
viability, T/C [1]: 83.5%
viability, T/C [2]: 85.8%
viability, T/C [3]: 69.1%
viability, T/C [4]: 85.8%
viability, T/C [5]: 86.1%
viability, T/C [6]: 18.5%
viability, T/C [7]: 83.8%
viability, T/C [8]: 83.5%
viability, T/C [9]: 72.3%
viability, T/C [10]: 94.7%
viability, T/C [11]: 96.6%
viability, T/C [12]: 15.1%
viability, T/C [13]: 82.9%
viability, T/C [14]: 77.4%
viability, T/C [15]: 71.2%
viability, T/C [16]: 79.8%
viability, T/C [17]: 87.3%
viability, T/C [18]: 11.8%
viability, T/C [19]: 86.1%
viability, T/C [20]: 88.6%
viability, T/C [21]: 70.8%
viability, T/C [22]: 77.6%
viability, T/C [23]: 82%
viability, T/C [24]: 11.9%
viability, T/C [25]: 82.4%
viability, T/C [26]: 79.2%
viability, T/C [27]: 80.7%
viability, T/C [28]: 61.4%
viability, T/C [29]: 63.2%
viability, T/C [30]: 8.03%
viability, T/C [31]: 80.7%
viability, T/C [32]: 62.4%
viability, T/C [33]: 62%
viability, T/C [34]: 51.6%
viability, T/C [35]: 52.2%
viability, T/C [36]: 4.39%

Cn1nccc1Nc1nccc(-c2ccn(C(CO)c3ccc(Cl)c(F)c3)c(=O)c2)n1 (stereo not drawn) + CC(Nc1ccc2c(c1)OCCn1cc(N3C(=O)OCC3C(F)F)nc1-2)C(N)=O
IC50 (second compound 0.00316 µM): > 10 µM
IC50 (second compound 0.01 µM): > 10 µM
IC50 (second compound 0.0316 µM): > 10 µM
IC50 (second compound 0.1 µM): > 10 µM
IC50 (second compound 0.316 µM): > 10 µM
IC50 (second compound 1 µM): > 10 µM
viability, T/C [1]: 93.2%
viability, T/C [2]: 108%
viability, T/C [3]: 103%
viability, T/C [4]: 120%
viability, T/C [5]: 143%
viability, T/C [6]: 145%
viability, T/C [7]: 103%
viability, T/C [8]: 101%
viability, T/C [9]: 97.5%
viability, T/C [10]: 115%
viability, T/C [11]: 124%
viability, T/C [12]: 131%
viability, T/C [13]: 106%
viability, T/C [14]: 99.4%
viability, T/C [15]: 106%
viability, T/C [16]: 122%
viability, T/C [17]: 131%
viability, T/C [18]: 123%
viability, T/C [19]: 102%
viability, T/C [20]: 108%
viability, T/C [21]: 115%
viability, T/C [22]: 124%
viability, T/C [23]: 115%
viability, T/C [24]: 116%
viability, T/C [25]: 97.3%
viability, T/C [26]: 91.7%
viability, T/C [27]: 97.2%
viability, T/C [28]: 89.3%
viability, T/C [29]: 78.3%
viability, T/C [30]: 80.1%
viability, T/C [31]: 78.8%
viability, T/C [32]: 79.8%
viability, T/C [33]: 65%
viability, T/C [34]: 72%
viability, T/C [35]: 60.7%
viability, T/C [36]: 62.7%
